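Following 48 hours of exposure in 96-well plates, responses at five concentrations were used to interpolate endpoints linearly. GI50 marks 50% less growth.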 Active and inactive are the calls of the source. Cut-off read from the data, not from the text of the source: active = GI50 up to about 1.1 µM and inactive = higher.
How the values were obtained:
Test in all cases: NCI anticancer screen, dose series, 48 h
786-0 = test system: 786-0
A498 = test system: A498
A549 = test system: A549
ACHN = test system: ACHN
CAKI-1 = test system: CAKI-1
CCRF-CEM = test system: CCRF-CEM
COLO 205 = test system: COLO 205
DLD-1 = test system: DLD-1
DMS-114 = test system: DMS-114
DMS-273 = test system: DMS-273
EKVX = test system: EKVX
HCC 2998 = test system: HCC 2998
HCT-116 = test system: HCT-116
HCT-15 = test system: HCT-15
HL-60 = test system: HL-60
HOP-18 = test system: HOP-18
HOP-62 = test system: HOP-62
HOP-92 = test system: HOP-92
HT-29 = test system: HT-29
IGROV-1 = test system: IGROV-1
K562 = test system: K562
KM-20L2 = test system: KM-20L2
KM12 = test system: KM12
LOX IMVI = test system: LOX IMVI
LXFL 529 = test system: LXFL 529
M14 = test system: M14
M19-MEL = test system: M19-MEL
MOLT-4 = test system: MOLT-4
Malme-3M = test system: Malme-3M
NCI-H226 = test system: NCI-H226
NCI-H23 = test system: NCI-H23
NCI-H460 = test system: NCI-H460
NCI-H522 = test system: NCI-H522
OVCAR-3 = test system: OVCAR-3
OVCAR-4 = test system: OVCAR-4
OVCAR-5 = test system: OVCAR-5
OVCAR-8 = test system: OVCAR-8
RXF 393 = test system: RXF 393
RXF 631 = test system: RXF 631
SF-268 = test system: SF-268
SF-295 = test system: SF-295
SF-539 = test system: SF-539
SK-MEL-28 = test system: SK-MEL-28
SK-MEL-2 = test system: SK-MEL-2
SK-MEL-5 = test system: SK-MEL-5
SK-OV-3 = test system: SK-OV-3
SN12C = test system: SN12C
SNB-19 = test system: SNB-19
SNB-75 = test system: SNB-75
SNB-78 = test system: SNB-78
SR = test system: SR
SW-620 = test system: SW-620
TK-10 = test system: TK-10
U-251 = test system: U-251
UACC-257 = test system: UACC-257
UACC-62 = test system: UACC-62
UO-31 = test system: UO-31
XF498 = test system: XF498

C[N+](C)(C)CC(=O)N/N=c1\cc(C(=O)Nc2ccc(N=O)cc2C#N)oc2cc(O)ccc12
GI50 (786-0): > 100 µM (inactive) | GI50 (A498): > 100 µM (inactive) | GI50 (A549): > 100 µM (inactive) | GI50 (ACHN): > 100 µM (inactive) | GI50 (CAKI-1): > 100 µM (inactive) | GI50 (CCRF-CEM): > 100 µM (inactive) | GI50 (COLO 205): > 100 µM (inactive) | GI50 (DLD-1): > 100 µM (inactive) | GI50 (DMS-114): > 100 µM (inactive) | GI50 (DMS-273): > 100 µM (inactive) | GI50 (EKVX): > 100 µM (inactive) | GI50 (HCC 2998): > 100 µM (inactive) | GI50 (HCT-116): > 100 µM (inactive) | GI50 (HCT-15): > 100 µM | GI50 (HL-60): > 100 µM (inactive) | GI50 (HOP-18): > 100 µM (inactive) | GI50 (HOP-62): > 100 µM (inactive) | GI50 (HOP-92): > 100 µM (inactive) | GI50 (HT-29): > 100 µM (inactive) | GI50 (IGROV-1): > 100 µM (inactive) | GI50 (K562): > 100 µM (inactive) | GI50 (KM-20L2): > 100 µM (inactive) | GI50 (KM12): > 100 µM (inactive) | GI50 (LOX IMVI): > 100 µM (inactive) | GI50 (LXFL 529): > 100 µM (inactive) | GI50 (M14): > 100 µM (inactive) | GI50 (M19-MEL): > 100 µM (inactive) | GI50 (MOLT-4): > 100 µM (inactive) | GI50 (Malme-3M): > 100 µM (inactive) | GI50 (NCI-H226): > 100 µM (inactive) | GI50 (NCI-H23): > 100 µM (inactive) | GI50 (NCI-H460): > 100 µM (inactive) | GI50 (NCI-H522): > 100 µM (inactive) | GI50 (OVCAR-3): > 100 µM (inactive) | GI50 (OVCAR-4): > 100 µM (inactive) | GI50 (OVCAR-5): > 100 µM (inactive) | GI50 (OVCAR-8): > 100 µM (inactive) | GI50 (RXF 393): > 100 µM (inactive) | GI50 (RXF 631): > 100 µM (inactive) | GI50 (SF-268): > 100 µM (inactive) | GI50 (SF-295): > 100 µM (inactive) | GI50 (SF-539): > 100 µM (inactive) | GI50 (SK-MEL-28): > 100 µM (inactive) | GI50 (SK-MEL-2): > 100 µM (inactive) | GI50 (SK-MEL-5): > 100 µM (inactive) | GI50 (SK-OV-3): > 100 µM (inactive) | GI50 (SN12C): > 100 µM (inactive) | GI50 (SNB-19): > 100 µM (inactive) | GI50 (SNB-75): > 100 µM (inactive) | GI50 (SNB-78): > 100 µM (inactive) | GI50 (SR): > 100 µM (inactive) | GI50 (SW-620): > 100 µM (inactive) | GI50 (TK-10): > 100 µM (inactive) | GI50 (U-251): > 100 µM (inactive) | GI50 (UACC-257): > 100 µM (inactive) | GI50 (UACC-62): > 100 µM (inactive) | GI50 (UO-31): 72.3 µM (inactive) | GI50 (XF498): > 100 µM (inactive)

From ChEMBL document CHEMBL1201862, “PubChem BioAssay data set” (2004)
